Experimental findings from patent US6365571B1, “FGF inhibitor, angiogenesis inhibitor and antitumor agent containing complestatin or its derivative as effective ingredient” (NODA Institute for Scientific Research, priority 1998, dated 2002) are described below.

The subject of test [1] is fetal bovine heart endothelial (FBHE) cells. The test can be described thus: Inhibition of FBHE cell growth stimulated by bFGF. The test is classed as cell-based. Particulars: various concentrations, 1 ng/ml bFGF, 2 days, FIG. 8. As for the experimental part:
(§1) Growth of both fetal bovine heart endothelial (FBHE) cells and human umbilical vein endothelial cells (HUVEC) was promoted by addition of bFGF to the media. The inhibitory effect of complestatin on the cell growth stimulated by bFGF was investigated using these cells.
(1) 10% CS/DMEM containing FBHE at a concentration of 1×10^4 cells/ml was prepared for the cell suspension. One ml aliquots of this solution were then inoculated into each well of a 12-well plate and cultured for one day at 37° C. in a CO2 incubator. 1 ng/ml of bFGF and various concentrations of complestatin were added to each well followed by additional culturing for 2 days at 37° C. in a CO2 incubator. Next, the number of cells in each well was counted with a Coulter Counter (trade name, available from Coulter Electronics Co.).

The subject of test [2] is Balb/3T3 clone A31 cells. The test can be described thus: Inhibition of cell migration stimulated by bFGF (chemotaxis chamber). In kind it is cell-based, mouse. Particulars: various concentrations, 1 ng/ml bFGF, 5 hours, FIG. 7. An excerpt:
The effect of complestatin on cell migration stimulated by bFGF was investigated using a 96-well chemotaxis chamber (available from NEURO PROBE CO.) installed with an 8 μm frame filter (available from NEURO PROBE CO.) precoated with gelatin.
The experimental principle is illustrated-in FIG. 6. When bFGF is placed in the bottom well, cells adhered to the frame filter in the top well migrate to the bottom well.
Addition of complestatin to the bottom well can be used to investigate the inhibitory effect of complestatin on cell movement.
(1) 100 μl of cell suspension (0.5% CS/DMEM containing Balb/3T3 clone A31 cells at a concentration of 5×10^5 cells/ml) were placed in the top wells. In addition, 35 μl of 0.5% CS/DMEM containing various concentrations of complestatin and 1 ng/ml of bFGF were placed in the bottom wells.
(2) After incubating the chamber for 5 hours at 37° C. in a CO2 incubator, the frame filter was removed from the chamber, the cells were stained with Diff-Quik staining solution (trade name, available from Kokusai Shiyaku Co.), and the number of cells that migrated to the bottom surface of the filter was counted. Furthermore, with the exception of not adding complestatin to the bottom wells, the same procedure was performed for the control.

Test [3] deals with mouse fibrosarcoma (Meth A) cells. The test can be described thus: Antitumor activity, Meth A cells transplanted subcutaneously to mice. As to conditions: days 1 to 4 and 7 to 9, BALB/c-nu/nu mice, tumor size after 10 days. The test is classed as in vivo. As for the experimental part: The antitumor activity of complestatin was confirmed in an experiment using mouse fibrosarcoma (Meth A) cells. To begin with, 1×10^6 Meth A cells cultured in the abdominal cavity of BALB/c-nu/nu mice were transplanted subcutaneously to BALB/c-nu/nu mice (control group: 5 mice, experimental group: 5 mice), and tumor size was measured after 10 days.
Complestatin was dissolved in PBS, and administered intraperitoneally at 250μl/day once a day during days 1 to 4 and days 7 to 9. The dosing concentrations of complestatin were set at 5 mg/kg and 10 mg/kg. The tumor growth inhibition rate caused by complestatin was calculated according to the following formula:
{1− (tumor size at each dosing concentration/tumor size at dosing concentration of 0 mg/kg)}×100

Test [4] deals with human leukemia (HL-60) cells. The test can be described thus: Antitumor activity, HL-60 cells transplanted subcutaneously to SCID mice. In kind it is in vivo, mouse. As to conditions: 5 mg/kg intraperitoneally, days 1 to 3, 5 to 9, 12 and 13, CB17 SCID mice, tumor size after 20 days. As to the method:
The antitumor activity of complestatin was confirmed in an experiment using human leukemia (HL-60) cells. To begin with, 5×10^6 HL-60 cells were transplanted subcutaneously to CB17. SCID mice (control group: 4 mice, experimental group: 4 mice), and tumor size was measured after 20 days. Complestatin was dissolved in PBS, and administered intraperitoneally at 250μl/day once a day during days 1 to 3, days 5 to 9 and days 12 and 13. The dosing concentration of complestatin was set at 5 mg/kg. The tumor growth inhibition rate caused by complestatin was calculated according to the following formula:
{1− (tumor size at dosing concentration/tumor size at dosing concentration of 0 mg/kg)}×100

Test [5] has as its system bFGF receptors. The test can be described thus: Inhibition of specific binding of 125I-bFGF to receptors on Balb/3T3 clone A31 cells. Set-up: species or system mouse. As to conditions: various concentrations, 2 ng/ml 125I-bFGF, 1.5 hours at 4° C., FIG. 5. As for the experimental part: (3) Inhibitory effects on binding of bFGF to receptors was investigated for the above-mentioned sample solution according to the method of A. Yayon, et al. (Proc. Natl. Acad. Sci., USA, 90, 10643, 1993).
Namely, 1 ml of medium containing mouse fibroblast cell Balb/3T3 clone A31 cells at a concentration of 1×10^5 cells/ml (Dulbecco's modified Eagle's medium containing 10% calf serum, 25 mM HEPES (pH 7.5), 10 units/ml of penicillin and 10 μg/ml of streptomycin (10% CS/DMEM)) was added to a 24-well culture plate, and cultured for one day at 37° C. in a CO2 incubator. Furthermore, mouse fibroblast cells are known to express FGF receptors on their cell surfaces (J. Biol. Chem., 268, 9611, 1993). […]
Following completion of the reaction, after removing the binding medium and washing once with cold binding medium, the plate was washed twice with cold PBS (0.2 g potassium chloride, 0.2 g potassium primary phosphate, 8 g sodium chloride, 1.15 g sodium secondary phosphate and 1 liter of deionized water) at pH 7.5 containing 1.6 M sodium chloride. […] This procedure was repeated again, the solution was combined with the previous solution and then transferred to an RIA tube where radioactivity was measured with a gamma counter (available from Pharmacia Co.).
The amount of bFGF bound to receptors (specifically bound amount) was determined according to the following formula: […]

Test [6] concerns human umbilical vein endothelial cells (HUVEC). The test can be described thus: Inhibition of HUVEC cell growth stimulated by bFGF. The test is classed as cell-based. Particulars: various concentrations, 10 ng/ml bFGF, 2 days, FIG. 8. As for the experimental part:
as §1
(2) On the other hand, medium containing HUVEC at a concentration of 1×10^4 cells/ml (MCDB131 medium containing 10% fetal bovine serum, 25 mM HEPES (pH 7.5), 10 units/ml of penicillin and 10 μg/ml of streptomycin) was prepared for the cell suspension. One ml aliquots of the cell suspension were inoculated into each well of a 12-well plate precoated with type I collagen, and incubated for one day at 37° C. in a CO2 incubator. 10 ng/ml of bFGF and various concentrations of complestatin were added to each well followed by additional incubation for 2 days at 37° C. in a CO2 incubator. Next, the number of cells in each well was counted with a Coulter Counter (trade name, available from Coulter Electronics Co.). Furthermore, with the exception of not adding complestatin, the same procedure was performed for the control.

Test [7] deals with chorioallantoic membrane of chick embryo. The test can be described thus: Angiogenesis in the chick embryo chorioallantoic membrane. The test is classed as in vivo. Particulars: 2 days, % of fertilized eggs with inhibition. As to the method:
The inhibitory effect of complestatin on angiogenesis in the chorioallantoic membrane of chick embryo was investigated according to the method of T. Oikawa, et al. (J. Antibiotics, 44, 1033, 1991). To begin with, a portion of the uppermost part of the air chamber measuring about 1 cm square was removed from three-day-old fertilized chicken eggs, and cultured for 2 days in a humidified incubator. A silicon ring having an outer diameter of 5 mm and inner diameter of 3 mm was placed on the 5-day-old chorioallantoic membrane, and 10 μl of a 1% methylcellulose solution containing various concentrations of the complestatin obtained in Example 2 were added to the inside of the ring.
Moreover, after incubating for 2 days, a suitable amount of fat emulsion (Intralipos, trade name, available from Midori Juji Co.) was injected beneath the chorioallantoic membrane to facilitate microscopic observation followed by observation of angiogenesis in the chorioallantoic membrane. Fertilized eggs in which a region free of blood vessels in the chorioallantoic membrane (having a diameter of at least 3 mm) were judged as having observed inhibition of angiogenesis by complestatin. Angiogenesis inhibition rate (%) was calculated according to the following formula:
100× (number of fertilized eggs in which inhibition of angiogenesis was observed)/(number of fertilized eggs used in test)

In test [8] the test system is bovine aortic endothelial cells (BAEC). The test can be described thus: Tube formation of vascular endothelial cells in collagen gel. The test is classed as cell-based. Particulars: Bos taurus, 48 h, 2 days, read-out: Tube formation inhibition rate. As for the experimental part:
The inhibitory effect of complestatin on angiogenesis was investigated using a modified method of Furubayashi, et al. (J. Jap. Pharm., 105, 357, 1995). In this method, vascular endothelial cells form a tube (blood vessel-like tubular structure) in collagen gel. Addition of complestatin to this system makes it possible to investigate the inhibitory effect of complestatin on angiogenesis.
(1) Collagen gel was prepared in the manner described below. To begin with, type I collagen solution (3 mg/ml, available from Wako Junyaku Co.), 10-fold concentrated HEPES-free DMEM, reconstitution buffer (2.2 g of sodium bicarbonate and 4.77 g of HEPES dissolved in 100 ml of 0.05 N aqueous sodium hydroxide solution) and deionized water were mixed on ice at a ratio of 5:1:1:3 followed by the addition of 0.75 ml aliquots to each well of a 12-well plate. This plate was then incubated for 20 minutes in an incubator at 37° C. to form a gel.
(2) A cell suspension was prepared by suspending 3×10^5 cells/ml of bovine aortic endothelial cells (BAEC) in 10% CS/DMEM, after which 1.5 ml aliquots were inoculated onto the collagen gel followed by culturing for one day at 37° C. in a CO2 incubator. After removing the medium and washing four times with DMEM, 0.75 ml aliquots of the above-mentioned type I collagen solution were layered onto the plate followed by gelation at 37° C. in an incubator. 1.5 ml of 0.5% CS/DMEM containing various concentrations of complestatin were added to the resulting gel followed by culturing for 2 days at 37° C. in a CO2 incubator.
(3) After culturing, photographs were taken of four fields randomly selected for each well and these photographs were then analyzed by using the Olympus image processing analyzer Type SP500F (trade name, available from Olympus Co.) to determine the lengths of all tubes. The length of tube was then divided by the field area to determine the tube length per unit area.
The tube formation inhibition rate of complestatin was calculated according to the following formula:
{1− (tube length per unit area at each concentration/tube length per unit area in the absence of addition of complestatin)}×100

One may read the inhibition as how much of the control response was suppressed. For the compound `CN1C(=O)C(c2cc(Cl)c(O)c(Cl)c2)NC(=O)C2NC(=O)C(c3cc(Cl)c(O)c(Cl)c3)NC(=O)C(NC(=O)C(=O)c3cc(Cl)c(O)c(Cl)c3)Cc3c[nH]c4cc(ccc34)-c3cc2cc(c3O)Oc2ccc(cc2)CC1C(=O)NC(C(=O)O)c1ccc(O)cc1` (centres unmarked) [complestatin], in test [1], the “inhibition of growth of FBHE promoted by bFGF” value is recorded as “concentration-dependently inhibit”. The “inhibition of Balb/3T3 clone A31 cell migration stimulated by bFGF” value in test [2] was “concentration-dependently inhibit”. Besides, the “Growth inhibition rate (tumor size)” value was determined as 40% in test [3] (5 mg/kg intraperitoneally), 68% in test [3] (10 mg/kg intraperitoneally) and 76% in test [4]. The “inhibition of specific binding of 125I-bFGF to receptors” value in test [5] was “concentration-dependently inhibit”. Moreover, the “inhibition of growth of HUVEC promoted by bFGF” value in test [6] is recorded as “concentration-dependently inhibit”. The Angiogenesis inhibition rate in test [7] (6.25 μg/egg) was 14%; in test [7] (12.5 μg/egg), 33%; in test [7] (25 μg/egg) it was 33%; in test [7] (50 μg/egg) it was 52%; in test [7] (100 μg/egg) it was 77%. The inhibition at 0.78 µg/mL in test [8] (0.78 μg/ml complestatin) was 3%. The inhibition at 1.6 µg/mL in test [8] (1.6 μg/ml complestatin) is 17%. Further, in test [8] (3.1 μg/ml complestatin), the inhibition at 3.1 µg/mL was 10%. Besides, the inhibition at 6.3 µg/mL in test [8] (6.3 μg/ml complestatin) was determined as 21%. In addition, the inhibition at 13 µg/mL in test [8] (13 μg/ml complestatin) came to 43%. Besides, the inhibition at 25 µg/mL in test [8] (25 μg/ml complestatin) turned out to be 91%. For the same compound, the inhibition at 50 µg/mL in test [8] (50 μg/ml complestatin) is 94%. The inhibition at 100 µg/mL in test [8] (100 μg/ml complestatin) was determined as 99%.
